Source: US20250129334A1, “LINEAGE SPECIFICATION DURING STEM CELL TRANSITION” (Amniotics AB, priority 2021, published 2025)

Assays:
HE cells [1] = test: Transplantation of treated HE cells into irradiated NSG mice; type: in vivo
Description: Sorted human HE cells (350,000) were mixed with OP9-DL1 stroma (60,000) and subcultured for 3 days with or without DCA (3 mM) on Matrigel (16 μg/cm^2, Corning)-coated 12-well plates in HE medium (32). Between 100,000-150,000 cells from control or DCA samples were transplanted into sub lethally irradiated (300 cGy) 8-week-old female NOD/Cg-Prkdc^scid Il2^tm1Wj1/SzJ mice (NSG, The Jackson Laboratory) together with 20,000 whole BM support cells from C57BV6.SJL mice (CD45.1^+/CD45.2^+, in house breeding). Cells were transplanted in single cell solution in 250 μL PBS with 2% FBS through intravenous tail vein injection. Drinking water of transplanted NSG mice was supplemented with ciprofloxacin (125 mg/L, HEXAL) for 3 weeks after transplantation to prevent infection. Mice were housed in a controlled environment with 12-hour light-dark cycles with chow and water provided ad libitim. Experiments and animal care were performed in accordance with the Lund University Animal Ethical Committee.
Peripheral blood (PB) was collected from the tail vein into EDTA-coated microvette tubes (Sarstedt, Cat #20.1341.100). […]
Bone marrow was analyzed at the 12-week transplantation endpoint. […]

iPSC-CD34+ = test: NK cell cytotoxic degranulation (CD107) with or without K562 co-culture; type: cell-based, human; settings: absence of K562; DCA 10 mM, CP 2.5 μM, cholesterol 0.5x
Text: NK cell anti-tumour activity can occur via cytotoxic degranulation. CD107 is a marker that is present in the cytotoxic vesicles of NK cells, and so is not expressed on the cell surface of inactivated NK cells. However, upon NK cell activation and degranulation, the CD107 target becomes detectable on the cell surface. Therefore, the level of CD107 detected on NK cells correlates with cytotoxic degranulation. In this assay, several exemplary metabolic regulators were used to assess cytotoxic degranulation in a co-culture assay with K562 cells (an exemplary cancer cell model). As a negative control, iPSC-CD34^+ untreated with a metabolic regulator were used, in which a basal level of 3.27% of degranulated NK cells (CD3^−CD56^+CD16^+CD107^+ cells) were observed (FIG. 16A, top panel).

[2] = tested on: HBE1, HBG1-2, HBA1-2 transcripts; test: Globin transcript q-PCR in CFU colonies; type: cell-based, human; settings: normalized to KLF1, UK5099 10 μM
Description: Subcultured HE cells were treated with StemPro Accutase Cell Dissociation Reagent for 2 minutes at 37° C. and dissociated cells were resuspended in 3 ml Methocult H4230 (STEMCELL Technologies, France) (prepared according to manufacturer's instructions, with 20 mL Iscove's Modified Dulbecco's Medium containing 2.5 μg hSCF, 5 μg GM-CSF, 2.5 μg IL-3 and 500 U EPO). Each mixture was divided onto 2 wells of a non-tissue culture treated 6-well plate. Following a 12-day incubation in a humidified incubator at 37° C., 5% CO2, 20% O2, colonies were morphologically distinguished and scored. For globin analysis, colonies in Methocult wells were harvested with PBS, washed thoroughly and frozen in RLT buffer with β-mercaptoethanol. Following RNA extraction and RT (Qiagen), gene expression was assessed with taqman probes by q-PCR. The taqman probes used for this assay are HBA1/2 (Hs00361191_g1), HBE1 (Hs00362216_m1), HBG2/1 (Hs00361131_g1) and KLF1 (Hs00610592_m1).

HE cells [3] = test: Lymphoid (NK) differentiation assay on OP9-DL1 stroma; type: cell-based, human; settings: 3-day treatment, 35-day co-culture; UK5099 10 μM, DCA 3 mM
Description: Subculture day 3 HE cells cultured in the presence of UK5099 (10 μM) or DCA (3 mM or 10 mM), as indicated, were collected after a 2-minute incubation at 37° C. with StemPro Accutase Cell Dissociation Reagent and seeded onto 80% confluent OP9-DL1 stroma. Cells were cultured in OP9 medium (OptiMEM medium with Glutamax (Invitrogen) with 10% FCS, 1% penicillin-streptomycin solution (Thermo Fisher Scientific) and 1% 2-mercaptoethanol (Invitrogen)) with SCF (10 ng/ml), FLT3-L (10 ng/ml), IL-2 (5 ng/ml), IL-7 (5 ng/ml, first 15 days only) and IL-15 (10 ng/ml) with passaging onto new OP9-DL1 stroma every week, as described previously (Renoux, V. M. et al. Identification of a Human Natural Killer Cell Lineage-Restricted Progenitor in Fetal and Adult Tissues. Immunity 43, 394-407 (2015)). At day 35 of co-culture, cells were analyzed on a BD LSRFortessa.

Row | SMILES | increase of CLP (common lymphoid progenitor) (HE cells [1]; FIG. 3, n, BM week 12) | human CD45+ cells in the peripheral blood (HE cells [1]; week 8, 3-day DCA-treated HE cells) | degranulated NK cells (CD3-CD56+CD16+CD107+ cells) (iPSC-CD34+) | increase in degranulated NK cells vs untreated control (iPSC-CD34+) | HBE1 (embryonic) globin transcripts [2] | HBG1-2 (fetal) globin transcripts [2] | HBA1-2 (adult globin) expression ([2]; DCA 3 mM) | NK cell differentiation (CD45+CD56+ cells) (HE cells [3])
1 | O=C(O)C(Cl)Cl [DCA, dichloroacetate] | 3 fold | around 1% | 13.8 % of the population | more than 4 fold |  |  |  | 
2 | N#CC(=Cc1cn(-c2ccccc2)c2ccccc12)C(=O)O [UK5099, 2-Cyano-3-(1-phenyl-1H-indol-3-yl)-2-propenoic acid] |  |  |  |  | significant increase | significant increase | did not have an effect | impaired NK cell formation
